What is called pIC50 is the IC50 on a negative log10 scale, so that one unit is a factor of ten.

pIC50: −log10 of the molar value.

These results are taken from BindingDB's records for doi:10.1021/np9704922 (University of Naples Federico II, 1998).

The experiment in a line: Inhibition of human synovial secretory PLA2.

Consider `CC1(C)CCC[C@]2(C)[C@H]3CC[C@@H]4[C@H](O)O[C@@H](C5=CC(=O)OC5O)C[C@H]4[C@]3(C)CC[C@@H]12` (stereo partly specified) [Petrosaspongiolide P], for which the pIC50 was 5.42.
